Tested on: anaphylactic asthma in guinea-pigs
Test: Antagonism to anaphylactic asthma in guinea-pigs
Assay type: in vivo, guinea-pig (male Hartley)
Conditions: 30 min before egg albumin aerosol; for Inhibitory effect of anaphylactic asthma in guinea-pig: survival more than 2 hours
Protocol: (1) Preparation of rabbit antiserum against egg albumin
Equal volumes of a saline solution of egg albumin (200 mg./ml.) and of Freund's Complete Ajuvant were mixed and emulsified. Each male New Zealand white strain rabbits, each weighing 2 to 2.5 kg., received an intramuscular injection of 0.5 ml. of the emulsion in the left and right thigh regions. One week later, they received an intradermal injection of 0.25 ml. of a saline solution of egg albumin (concentration: 20 mg./ml.) in the different four sites of the dorsal skin surface three times every other week. Blood samples were collected from the carotid artery one week after the last injection.
(2) Determination of Passive Cutaneous Anaphylaxis (PCA) titer
The level of anaphylactic anti-egg albumin antibodies in pools of sera were determined by passive cutaneous anaphylaxis (PCA) reactions using shaven Hartley strain test guinea-pigs.
Antiserum was serially diluted (two fold) in saline and 0.1 ml. of each antiserum dilution were injected intradermally into the dorsal skin surface of the test guinea-pigs. 24 Hours after intradermal sensitization,Egg albumin-specific PCA reactions were elicited by intravenous injection of 10 mg. of egg albumin in 1 ml. of 1% Evans blue dye dissolved in saline. Reactions were read and recorded as the highest dilution of serum evoking threshold PCA reactivity (5 mm diameter).
(3) Antagonism to anaphylactic asthma in guinea-pigs
Male Hartley stain guinea-pigs, weighing 305 to 400 g, were used. Animals were sensitized by an intravenous injection of rabbit antiserum against egg albumin (4000 PCA titer) with 0.5 ml./animal. After 24 hours, animals were placed individually in a plastic chamber of 5.3 liter volume. An aerosol of 5% egg albumin solution was sprayed in the chamber at a rate of 0.16 ml./min with a commercial nebulizer. The test compound was given to the animals orally 30 minutes before the challenge with the egg albumin solution. Each dose group consisted of ten animals. The inhibitory effect of the test compound was determined from the number of surviving animals more than 2 hours after spray of the antigen. The ED50 value (dose to be required 50% protection from death) was calculated according to Litchfield-Wilcoxon method.

## O=C1C(=O)N(CCCN2CCN(C(c3ccccc3)c3ccccc3)CC2)c2ccccc21 [1-[3-(4-Benzhydryl-1-piperazinyl)propyl]isatin]
0.1 mg./kg. P.O.
  Inhibitory effect of anaphylactic asthma in guinea-pig: 0%
1.0 mg./kg. P.O.
  Inhibitory effect of anaphylactic asthma in guinea-pig: 20%
3.2 mg./kg. P.O.
  Inhibitory effect of anaphylactic asthma in guinea-pig: 40%
10.0 mg./kg. P.O.
  Inhibitory effect of anaphylactic asthma in guinea-pig: 80%
32.0 mg./kg. P.O.
  Inhibitory effect of anaphylactic asthma in guinea-pig: 100%
100.0 mg./kg. P.O.
  Inhibitory effect of anaphylactic asthma in guinea-pig: 100%
Cavia porcellus, po, 2 h, P.O., Litchfield-Wilcoxon method, read-out: ED50 (dose to be required 50% protection from death)
  ED50: 3.4 mg/kg

Source: US4382934A, “Isatin derivatives, processes for the preparation thereof and pharmaceutical composition comprising the same” (Fujisawa Pharmaceutical Co., Ltd., priority 1978, dated 1983)
